Results on one molecule are retold here after ChEMBL document CHEMBL1124465, “Dynamics and thermodynamics of the counterion effect in a 7H-pyridocarbazole dimer (ditercalinium). Hypothesis of a nonbisintercalative binding mode to calf thymus DNA at high drug/base ratio” (J Med Chem, 1989).

Test [1] relates to Nucleic Acid. Description: Monointeraction into calf thymus DNA at pH 5. It counts as nucleic-acid assay.
Test [2] concerns Nucleic Acid. In words: Monointeraction into calf thymus DNA at pH 7.4. It is filed as nucleic-acid assay.

With `COc1ccc2[nH]c3ccc4cc[n+](CCN5CCC(C6CCN(CC[n+]7ccc8ccc9[nH]c%10ccc(OC)cc%10c9c8c7)CC6)CC5)cc4c3c2c1`, the figures for the Ka in the test with Nucleic Acid [1] and with Nucleic Acid [2] were 5e+08 M⁻¹ and 2e+07 M⁻¹, respectively.
